Read-outs that look alike come from different tables or passages of the source.
Key:
CYP1A2 protein = CYP1A2 protein induction in primary human hepatocytes (western blot); settings: 10 µM
From the text: (§1) Primary human hepatocytes used in this study were obtained from two sources: (i) from multiorgan donor HH52; the use of liver cells of donor HH52 was approved by “Ethical committee at the Faculty Hospital Olomouc”,and it was in accordance with Transplantation law #285/2002 Sb; “Ethical committee at the Faculty Hospital Olomouc” waived the authors from obtaining consent from the next of kin, regarding human hepatocytes obtained from liver donor HH52. (ii) long-term human hepatocytes in monolayer Batch HEP220770 (person), Batch HEP220774 (person) were purchased from Biopredic International (Biopredic International, Rennes, France). Cells were cultured in serum-free medium. Cultures were maintained at 37°C and 5% CO2 in a humidified incubator.
Total protein extracts were prepared from cells cultured on 6-well plates. Cells were washed twice with ice-cold PBS and scraped into 1 ml of PBS. The suspension was centrifuged (4500 RPM/5 min/4°C) and the pellet was resuspended in 150 µl of ice-cold lysis buffer (150 mM NaCl; 10 mM Tris pH 7.2; 0.1% (w/v) SDS; anti-protease cocktail, 1% (v/v) Triton X-100; anti-phosphatase cocktail, 1% (v/v) sodium deoxycholate; 5 mM EDTA). […] Supernatant was collected and the protein content was determined by the Bradford reagent. […] The density of bands was measured by densitometry. […]
Figure 3 Effects of omeprazole and lansoprazole enantiomers on CYP1A1 mRNA, protein and EROD activity in primary human hepatocytes. […] RT-PCR data are the mean ± SD from triplicate measurements and are expressed as fold induction over vehicle-treated cells. […] Density of bands in western blots was quantified by densitometry and the values are indicated along with respective blots. […] Upper bar graph: An activity of 7-ethoxyresorufin- O-deethylase (EROD) was measured by fluorescent spectrophotometry with 530 nm excitation and 590 nm emission filters. […] The data are expressed as fold induction over the value from control cells. Lower bar graph: A conventional MTT test was performed and absorbance was measured at 540 nm. […] The data are expressed as percentage of viability of control cells.

CYP1A1 mRNA [1] = settings: HepG2, 24 h
Experimental: (§2) Total RNA was isolated using TRI Reagent (Molecular Research Center, Cincinnati, OH, USA). cDNA was synthesized from 1000 ng of total RNA using M-MLV Reverse Transcriptase (Finnzymes, Espoo, Finland) at 42°C for 60 min in the presence of random hexamers (Takara, Shiga, Japan). qRT-PCR was carried out using LightCycler FastStart DNA MasterPLUS SYBR Green I (Roche Diagnostic Corporation, Prague, Czech Republic) on a Light Cycler 480 II apparatus (Roche Diagnostic Corporation). CYP1A1, CYP1A2 and GAPDH mRNAs were determined as described previously. Measurements were performed in triplicates. Gene expression was normalized to GAPDH as a housekeeping gene.
Treatments were performed in triplicates.

[2] = MTT cytotoxicity test in AZ-AHR reporter cells; settings: human
Experimental: (§3) A stably transfected gene reporter cell line AZ-AHR, derived from human hepatoma HepG2 cells transfected with a construct containing several AhR binding sites upstream of a luciferase reporter gene, was used for assessment of AhR transcriptional activity. Cells were incubated for 24 h with tested compounds and/or vehicle (DMSO; 0.1% v/v), in the presence or absence of TCDD (10 nM; AZ-AHR cells) or DEX (100 nM; AZ-GR cells). After the treatments, cells were lysed and luciferase activity was measured. In parallel, cell viability was determined by conventional MTT test.
(§4) In the first series of experiments, the cytotoxicity of tested compounds was assessed in gene reporter cell line AZ-AHR. For this purpose, the cells were incubated for 24 h with S-OME, R-OME, rac-OME, S-LAN, R-LAN and rac-LAN at concentration ranging from 100 pM to 250 µM. The vehicle was DMSO (0.1% v/v). After the treatment, a conventional MTT test was performed.
(§5) Figure 1 Effect of omeprazole and lansoprazole enantiomers on transcriptional activity of aryl hydrocarbon receptor AhR in human gene reporter cell line AZ-AHR. The cells were seeded in 96-well plates and stabilized for 16 h. Panels A and B: Cells were incubated for 24 h with S-OME, R-OME, rac-OME, S-LAN, R-LAN and rac-LAN at concentrations ranging from 10^−10 M to 10^−4 M. The vehicle was DMSO (0.1% v/v). After the treatment, MTT test was performed and absorbance was measured at 540 nm. Treatments were performed in triplicates. The data are the mean from experiments from six different passages of cells and are expressed as a percentage of viability of control cells. The values of IC50 were calculated and are indicated in a figure. Panels C - F: AZ-AHR cells were incubated for 24 h with S-OME, R-OME, rac-OME, S-LAN, R-LAN and rac-LAN at concentrations ranging from 10^−10 M to 10^−4 M in the absence (Panels C and D - agonist mode) or in the presence (Panels E and F- antagonist mode) of TCDD (5 nM). The vehicle was DMSO (0.1% v/v). After the treatments, cells were lysed and luciferase activity was measured. Treatments were performed in triplicates in five (agonist mode) or four (antagonist mode) independent cell passages. […] Data are expressed as a fold induction of luciferase activity over control cells (Panels C and D - agonist mode) or as a percentage of maximal induction attained by TCDD (Panels E and F- antagonist mode).

[3] = system: aryl hydrocarbon receptor AhR; assay: AhR gene reporter assay, agonist mode; settings: for AhR agonist efficacy: AZ-AHR cells, 24 h, compared to 5 nM TCDD, calculated at 100 µM compound (stated for omeprazole); for EC50 at 24 h: human
Experimental: as §3, §5
Gene reporter assays were performed in two different experimental layouts. […] In antagonist mode, cells were incubated with increasing concentrations of tested compounds in combination with model agonist (TCDD; 5 nM), and half-maximal inhibitory concentrations (IC50) were calculated. […] The efficacy was calculated at concentration of compounds of 100 µM and compared to 5 nM TCDD (Figure 1C).

CYP1A1 mRNA [4] = assay: CYP1A1 mRNA induction in primary human hepatocytes (qRT-PCR); settings: 100 µM
From the text: as §1, §2
We examined a capability of omeprazole and lansoprazole to induce CYP1A1 and CYP1A2 mRNA and protein in primary human hepatocytes, which is a more physiological and metabolically competent cell model. Human hepatocytes were treated for 24 h or 48 h with TCDD (5 nM), vehicle (DMSO; 0.1% V/V) and tested compounds.
Figure 3 Effects of omeprazole and lansoprazole enantiomers on CYP1A1 mRNA, protein and EROD activity in primary human hepatocytes. Panel A and Panel B: RT-PCR analyses of CYP1A1 and CYP1A2 mRNA and western blots of CYP1A1 and CYP1A2 from two different cultures (HH52 and Hep220770) are shown. Human hepatocytes were incubated for 24 h (mRNA analysis) or 48 (protein analysis) with S-OME, R-OME, rac-OME, S-LAN, R-LAN, rac-LAN, TCDD and vehicle (DMSO; 0.1% v/v). RT-PCR data are the mean ± SD from triplicate measurements and are expressed as fold induction over vehicle-treated cells. Data were normalized to GAPDH mRNA levels. Density of bands in western blots was quantified by densitometry and the values are indicated along with respective blots. Panel C: EROD and cytotoxicity: Human hepatocytes (culture Hep220774) were treated for 24 h with S-OME, R-OME, rac-OME, S-LAN, R-LAN, rac-LAN, TCDD and vehicle (DMSO; 0.1% v/v). Upper bar graph: An activity of 7-ethoxyresorufin- O-deethylase (EROD) was measured by fluorescent spectrophotometry with 530 nm excitation and 590 nm emission filters. Treatments were performed in triplicates. The data are expressed as fold induction over the value from control cells. Lower bar graph: A conventional MTT test was performed and absorbance was measured at 540 nm. Treatments were performed in triplicates. The data are expressed as percentage of viability of control cells.

[5] = set-up: method as in PMID 8710755, PMID 19298580; settings: after oral administration of racemic drug; ref [8], [9]; cited from earlier work
CYP1A2 mRNA = CYP1A2 mRNA induction in primary human hepatocytes (qRT-PCR); settings: hepatocyte culture Hep220770, 24 h
From the text: as §1
Total RNA was isolated using TRI Reagent (Molecular Research Center, Cincinnati, OH, USA). cDNA was synthesized from 1000 ng of total RNA using M-MLV Reverse Transcriptase (Finnzymes, Espoo, Finland) at 42°C for 60 min in the presence of random hexamers (Takara, Shiga, Japan). qRT-PCR was carried out using LightCycler FastStart DNA MasterPLUS SYBR Green I (Roche Diagnostic Corporation, Prague, Czech Republic) on a Light Cycler 480 II apparatus (Roche Diagnostic Corporation). CYP1A1, CYP1A2 and GAPDH mRNAs were determined as described previously. Measurements were performed in triplicates. […]

[6] = system: CYP1A1/1A2 enzymes (EROD); assay: EROD activity in primary human hepatocytes; settings: hepatocyte culture Hep220774, 24 h, 5 nM
Experimental: (§6) Figure 3 Effects of omeprazole and lansoprazole enantiomers on CYP1A1 mRNA, protein and EROD activity in primary human hepatocytes. Panel A and Panel B: RT-PCR analyses of CYP1A1 and CYP1A2 mRNA and western blots of CYP1A1 and CYP1A2 from two different cultures (HH52 and Hep220770) are shown. Human hepatocytes were incubated for 24 h (mRNA analysis) or 48 (protein analysis) with S-OME, R-OME, rac-OME, S-LAN, R-LAN, rac-LAN, TCDD and vehicle (DMSO; 0.1% v/v). RT-PCR data are the mean ± SD from triplicate measurements and are expressed as fold induction over vehicle-treated cells. Data were normalized to GAPDH mRNA levels. Density of bands in western blots was quantified by densitometry and the values are indicated along with respective blots. Panel C: EROD and cytotoxicity: Human hepatocytes (culture Hep220774) were treated for 24 h with S-OME, R-OME, rac-OME, S-LAN, R-LAN, rac-LAN, TCDD and vehicle (DMSO; 0.1% v/v). Upper bar graph: An activity of 7-ethoxyresorufin- O-deethylase (EROD) was measured by fluorescent spectrophotometry with 530 nm excitation and 590 nm emission filters. Treatments were performed in triplicates. The data are expressed as fold induction over the value from control cells. Lower bar graph: A conventional MTT test was performed and absorbance was measured at 540 nm. […] The data are expressed as percentage of viability of control cells. […]

CYP1A1 protein = CYP1A1 protein induction in primary human hepatocytes (western blot); settings: hepatocyte culture HH52, 48 h
From the text: Primary human hepatocytes used in this study were obtained from two sources: (i) from multiorgan donor HH52; the use of liver cells of donor HH52 was approved by “Ethical committee at the Faculty Hospital Olomouc”,and it was in accordance with Transplantation law #285/2002 Sb; “Ethical committee at the Faculty Hospital Olomouc” waived the authors from obtaining consent from the next of kin, regarding human hepatocytes obtained from liver donor HH52. (ii) long-term human hepatocytes in monolayer Batch HEP220770 (person), Batch HEP220774 (person) were purchased from Biopredic International (Biopredic International, Rennes, France). Cells were cultured in serum-free medium. […]
Total protein extracts were prepared from cells cultured on 6-well plates. […] Supernatant was collected and the protein content was determined by the Bradford reagent. […] The density of bands was measured by densitometry. […]
Figure 3 Effects of omeprazole and lansoprazole enantiomers on CYP1A1 mRNA, protein and EROD activity in primary human hepatocytes. […] RT-PCR data are the mean ± SD from triplicate measurements and are expressed as fold induction over vehicle-treated cells. […] Density of bands in western blots was quantified by densitometry and the values are indicated along with respective blots. […] The data are expressed as fold induction over the value from control cells. […]

[7] = system: CYP1A1 catalytic activity (EROD); assay: EROD catalytic activity in HepG2 cells; settings: HepG2, 24 h, 5 nM
[8] = system: primary human hepatocytes; assay: MTT cytotoxicity test in primary human hepatocytes; settings: 100 µM
Experimental: as §6

AZ-AHR cells = assay: MTT cytotoxicity test in AZ-AHR reporter cells
Experimental: as §3, §4, §5

[9] = MTT cytotoxicity test in primary human hepatocytes; settings: female, human, primary human hepatocytes, culture Hep220774
Experimental: as §6

[10] = hepatocyte culture Hep220770, 24 h

Cc1c(OCC(F)(F)F)ccnc1C[S@@+]([O-])c1nc2ccccc2[nH]1 [R-LAN, R-lansoprazole]
CYP1A2 protein induction (CYP1A2 protein; hepatocyte culture HH52, 48 h): strong induction | CYP1A1 mRNA induction relative to S-LAN (CYP1A1 mRNA [1]; 100 µM): four times stronger | CYP1A1 mRNA induction relative to rac-LAN (CYP1A1 mRNA [1]; 100 µM): two times stronger | IC50 at 24 h [2]: > 250 µM | AhR agonist efficacy [3]: 23.0±10.0% | EC50 at 24 h [3]: 5.7 ± 2.9 µM | CYP1A1 mRNA induction (CYP1A1 mRNA [4]; hepatocyte culture HH52, 24 h): 17 % of TCDD induction | CYP1A1 mRNA induction (CYP1A1 mRNA [4]; [10]): 575 fold | share of circulating drug [5]: more than 80% | systemic exposure relative to the S-enantiomer [5]: 5 fold | effect on CYP1A2 mRNA relative to S-LAN (CYP1A2 mRNA): two times stronger

Clc1cc2c(cc1Cl)Oc1cc(Cl)c(Cl)cc1O2 [TCDD, 2,3,7,8-tetrachlorodibenzo-p-dioxin]
CYP1A1 mRNA induction (CYP1A1 mRNA [1]; 5 nM, vs vehicle-treated cells): approximately 230 fold | induction of AhR-dependent luciferase activity, average ([3]; 5 nM TCDD, five consecutive passages, vs vehicle-treated cells): 354 fold | induction of EROD activity [6]: approximately 15 fold | CYP1A1 protein induction (CYP1A1 protein): drastic increase | EROD activity, average increase [7]: 22-23 fold

Cc1c(OCC(F)(F)F)ccnc1C[S@+]([O-])c1nc2ccccc2[nH]1 [S-LAN, S-lansoprazole]
CYP1A2 protein induction (CYP1A2 protein; hepatocyte culture HH52, 48 h): strong induction | viability of the cells [8]: 64% | IC50 (AZ-AHR cells): 169 µM | EC50 [3]: 1.9 ± 0.3 µM | AhR agonist efficacy [3]: 26.3±8.7%

COc1ccc2nc([S@@+]([O-])Cc3ncc(C)c(OC)c3C)[nH]c2c1 [S-OME, S-omeprazole]
CYP1A2 protein induction (CYP1A2 protein; both hepatocyte cultures (HH52, Hep220770), 48 h): strongly induced | viability at 24 h, 250 µM [9]: 60% | cytotoxicity (AZ-AHR cells; AZ-AHR cells, 24 h, MTT, concentrations up to 250 µM): not cytotoxic | IC50 at 24 h [2]: > 250 µM | AhR agonist efficacy [3]: 44.8±11.8% | EC50 at 24 h [3]: 22.9 ± 7.9 µM | CYP1A1 mRNA induction (CYP1A1 mRNA [4]; [10]): 736 fold

From article PMC4041848, “Differential Effects of Omeprazole and Lansoprazole Enantiomers on Aryl Hydrocarbon Receptor in Human Hepatocytes and Cell Lines” (PLoS ONE, 2014)
